Laboratory results reported in US20250115597A1, “TYK2 INHIBITORS AND COMPOSITIONS AND METHODS THEREOF” (LYNK PHARMACEUTICALS CO. LTD., priority 2021, published 2025).

target: T1, Ba/F3-FL-TYK2-P760L cells (Homo sapiens, UniProt P29597, P760L, cells depend on it); assay: Anti-proliferative assay, Ba/F3-FL-TYK2-P760L cells (Cell-Titer Glo); type: cell-based; details: 72 h, read-out: BaF3-FL-T2P760L IC50
T1 construct: BaF3-FL-T2P760L (nM)
Summary of the method: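 Compound exposure ran 72 h at 37 °C in 5% CO2 across nine 3-fold concentrations from a 20 μM top dose, added 24 h after seeding 2000 cells/well.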

T1 sequence (P29597 whole entry P760L): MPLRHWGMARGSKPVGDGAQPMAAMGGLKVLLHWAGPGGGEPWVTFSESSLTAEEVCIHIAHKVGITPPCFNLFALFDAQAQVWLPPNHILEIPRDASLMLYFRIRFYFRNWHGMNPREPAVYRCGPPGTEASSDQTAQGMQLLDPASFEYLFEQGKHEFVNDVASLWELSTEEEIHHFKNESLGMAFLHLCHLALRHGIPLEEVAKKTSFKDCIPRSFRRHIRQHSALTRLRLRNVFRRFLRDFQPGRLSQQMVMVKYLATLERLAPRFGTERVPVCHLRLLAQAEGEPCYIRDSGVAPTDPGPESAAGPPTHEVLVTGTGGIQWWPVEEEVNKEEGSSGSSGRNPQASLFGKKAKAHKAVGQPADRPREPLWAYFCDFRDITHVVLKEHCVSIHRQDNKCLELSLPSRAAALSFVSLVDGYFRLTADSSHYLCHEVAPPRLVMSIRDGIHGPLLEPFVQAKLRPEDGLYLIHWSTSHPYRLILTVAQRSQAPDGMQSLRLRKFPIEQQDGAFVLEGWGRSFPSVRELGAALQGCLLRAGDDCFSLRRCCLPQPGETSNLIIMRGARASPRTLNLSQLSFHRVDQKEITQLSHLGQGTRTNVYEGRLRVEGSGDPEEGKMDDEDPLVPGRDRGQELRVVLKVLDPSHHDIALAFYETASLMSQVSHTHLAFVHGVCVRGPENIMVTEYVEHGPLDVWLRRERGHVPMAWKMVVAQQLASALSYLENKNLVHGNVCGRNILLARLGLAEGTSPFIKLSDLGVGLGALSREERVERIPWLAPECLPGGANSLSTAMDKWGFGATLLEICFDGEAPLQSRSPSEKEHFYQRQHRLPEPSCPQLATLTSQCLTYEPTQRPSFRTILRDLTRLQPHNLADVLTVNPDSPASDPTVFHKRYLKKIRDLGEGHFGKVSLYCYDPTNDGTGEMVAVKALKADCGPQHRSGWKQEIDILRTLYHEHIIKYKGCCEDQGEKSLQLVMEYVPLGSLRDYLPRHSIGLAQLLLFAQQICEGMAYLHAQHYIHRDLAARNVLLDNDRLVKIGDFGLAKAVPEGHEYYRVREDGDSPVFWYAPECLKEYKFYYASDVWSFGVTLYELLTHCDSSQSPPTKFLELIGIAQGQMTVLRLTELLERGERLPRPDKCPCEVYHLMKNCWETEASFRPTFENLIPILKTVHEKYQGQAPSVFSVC

`[2H]C([2H])([2H])NC(=O)c1cnc(NC(=O)C2CC2)cc1Nc1cn(C)c2ccn([C@H]3CCOC3)c(=O)c12` [Example 115, 6-(Cyclopropanecarbonylamino)-4-[[1-methyl-4-oxo-5-[(3S)-tetrahydrofuran-3-yl]pyrrolo[3,2-c]pyridin-3-yl]amino]-N-(methyl-d3)pyridine-3-carboxamide] and `[2H]C([2H])([2H])NC(=O)c1cnc(NC(=O)C2CC2)cc1Nc1cn(C)c2ccn(-c3cnn(C)c3)c(=O)c12` [Example 120, 6-(Cyclopropanecarboxamido)-N-(methyl-d3)-4-((1-methyl-5-(1-methyl-1H-pyrazol-4-yl)-4-oxo-4,5-dihydro-1H-pyrrolo[3,2-c]pyridin-3-yl)amino)nicotinamide] are within 1.5-fold of each other in GI50: 1100 nM for the first, 1120 nM for the second.

Going from `[2H]C([2H])([2H])NC(=O)c1cnc(NC(=O)C2CC2)cc1Nc1cn(C)c2ccn(CC(=O)OCC)c(=O)c12` [Example 117, Ethyl 2-(3-((2-(cyclopropanecarboxamido)-5-((methyl-d3)carbamoyl)pyridin-4-yl)amino)-1-methyl-4-oxo-1,4-dihydro-5H-pyrrolo[3,2-c]pyridin-5-yl)acetate] to `[2H]C([2H])([2H])NC(=O)c1cnc(NC(=O)C2CC2)cc1Nc1cn(C)c2ccn(-c3cc(C)n(C)n3)c(=O)c12` [Example 119, 6-(Cyclopropanecarbonylamino)-4-[[5-(1,5-dimethylpyrazol-3-yl)-1-methyl-4-oxo-pyrrolo[3,2-c]pyridin-3-yl]amino]-N-(methyl-d3)pyridine-3-carboxamide], the GI50 rises from 249 nM to 1510 nM (6.1-fold).

Going from `[2H]C([2H])([2H])NC(=O)c1cnc(NC(=O)C2CC2)cc1Nc1cn(C)c2ccn(-c3ccn(C)n3)c(=O)c12` [Example 118, 6-(Cyclopropanecarbonylamino)-4-[[1-methyl-5-(1-methylpyrazol-3-yl)-4-oxo-pyrrolo[3,2-c]pyridin-3-yl]amino]-N-(methyl-d3)pyridine-3-carboxamide] to `[2H]C([2H])([2H])NC(=O)c1cnc(NC(=O)C2CC2)cc1Nc1csc2c(Cl)cn(C(C)C)c(=O)c12` [Example 175, 4-((7-Chloro-5-isopropyl-4-oxo-4,5-dihydrothieno[3,2-c]pyridin-3-yl)amino)-6-(cyclopropanecarboxamido)-N-(methyl-d3)nicotinamide], the GI50 falls from 1060 nM to 124 nM (8.5-fold).

`[2H]C([2H])([2H])NC(=O)c1cnc(Nc2ccc(F)cn2)cc1Nc1cn(C)c2c(F)cn(C)c(=O)c12` [Example 122, 4-((7-Fluoro-1,5-dimethyl-4-oxo-4,5-dihydro-1H-pyrrolo[3,2-c]pyridin-3-yl)amino)-6-((5-fluoropyridin-2-yl)amino)-N-(methyl-d3)nicotinamide] and `[2H]C([2H])([2H])NC(=O)c1cnc(Nc2ccc(F)cn2)cc1Nc1cn(C)c2c(Cl)cn(C)c(=O)c12` [Example 159, 4-((7-Chloro-1,5-dimethyl-4-oxo-4,5-dihydro-1H-pyrrolo[3,2-c]pyridin-3-yl)amino)-6-((5-fluoropyridin-2-yl)amino)-N-(methyl-d3)nicotinamide] are within 1.5-fold of each other in GI50: 34.7 nM for the first, 28.3 nM for the second.

`[2H]C([2H])([2H])NC(=O)c1cnc(Nc2ccc(F)cn2)cc1Nc1cn(C)c2c(F)cn(CC(F)(F)F)c(=O)c12` [Example 124, 4-((7-Fluoro-1-methyl-4-oxo-5-(2,2,2-trifluoroethyl)-4,5-dihydro-1H-pyrrolo[3,2-c]pyridin-3-yl)amino)-6-((5-fluoropyridin-2-yl)amino)-N-(methyl-d3)nicotinamide] and `[2H]C([2H])([2H])NC(=O)c1cnc(Nc2ccc(F)cn2)cc1Nc1cn(C)c2c(Cl)cn(CC)c(=O)c12` [Example 160, 4-((7-Chloro-5-ethyl-1-methyl-4-oxo-4,5-dihydro-1H-pyrrolo[3,2-c]pyridin-3-yl)amino)-6-((5-fluoropyridin-2-yl)amino)-N-(methyl-d3)nicotinamide] are within 1.5-fold of each other in GI50: 34.8 nM for the first, 29.7 nM for the second.

`[2H]C([2H])([2H])NC(=O)c1cnc(NC(=O)C2CC2)cc1Nc1ccc2cnn(C(C)C)c2c1OC` [Example 126, 6-(Cyclopropanecarboxamido)-4-((1-isopropyl-7-methoxy-1H-indazol-6-yl)amino)-N-(methyl-d3)nicotinamide] and `[2H]C([2H])([2H])NC(=O)c1cnc(NC(=O)C2CC2)cc1Nc1ccc2cnn(C(C)C)c2c1OC([2H])([2H])[2H]` [Example 133, 6-(Cyclopropanecarboxamido)-4-((1-isopropyl-7-(methoxy-d3)-1H-indazol-6-yl)amino)-N-(methyl-d3)nicotinamide] are within 1.5-fold of each other in GI50: 522 nM for the first, 394 nM for the second.

Going from `[2H]C([2H])([2H])NC(=O)c1cnc(NC(=O)C2CC2)cc1Nc1ccc2cnn(C3CCOCC3)c2c1OC` [Example 127, 6-(Cyclopropanecarboxamido)-4-((7-methoxy-1-(tetrahydro-2H-pyran-4-yl)-1H-indazol-6-yl)amino)-N-(methyl-d3)nicotinamide] to `[2H]C([2H])([2H])NC(=O)c1cnc(NC(=O)C2CC2)cc1Nc1ccc2cnn(C3CC3)c2c1OC` [Example 143, 6-(Cyclopropanecarboxamido)-4-((1-cyclopropyl-7-methoxy-1H-indazol-6-yl)amino)-N-(methyl-d3)nicotinamide], the GI50 falls from 378 nM to 108 nM (3.5-fold).

Going from `[2H]C([2H])([2H])NC(=O)c1cnc(NC(=O)[C@H]2C[C@@H](C#N)C2)cc1Nc1ccc2cnn(CC)c2c1OC` [Example 128A, 6-((Cis)-3-cyanocyclobutane-1-carboxamido)-4-((1-ethyl-7-methoxy-1H-indazol-6-yl)amino)-N-(methyl-d3)nicotinamide] to `[2H]C([2H])([2H])NC(=O)c1cnc(NC(=O)[C@H]2C[C@H](C#N)C2)cc1Nc1ccc2cnn(CC)c2c1OC` [Example 128B, 6-((Trans)-3-cyanocyclobutane-1-carboxamido)-4-((1-ethyl-7-methoxy-1H-indazol-6-yl)amino)-N-(methyl-d3)nicotinamide], the GI50 rises from 736 nM to 1710 nM (2.3-fold).

First: [2H]C([2H])([2H])NC(=O)c1cnc(NC(=O)C2CC2)cc1Nc1ccc2cnn(CCOC)c2c1OC [Example 130, 6-(Cyclopropanecarboxamido)-4-((7-methoxy-1-(2-methoxyethyl)-1H-indazol-6-yl)amino)-N-(methyl-d3)nicotinamide]
Second: [2H]C([2H])([2H])NC(=O)c1cnc(NC(=O)C2CC2)cc1Nc1ccc2cnn(C([2H])([2H])[2H])c2c1OC [Example 140, 6-(Cyclopropanecarboxamido)-4-((7-methoxy-1-(methyl-d3)-1H-indazol-6-yl)amino)-N-(methyl-d3)nicotinamide]
The GI50 of the first is 4.3-fold higher: 357 nM for the first, 82.4 nM for the second.

Going from `[2H]C([2H])([2H])NC(=O)c1cnc(Nc2cnn(C)c2)nc1Nc1ccc2cnn(CC)c2c1OC([2H])([2H])[2H]` [Example 136, 4-((1-Ethyl-7-(methoxy-d3)-1H-indazol-6-yl)amino)-N-(methyl-d3)-2-((1-methyl-1H-pyrazol-4-yl)amino)pyrimidine-5-carboxamide] to `[2H]C([2H])([2H])NC(=O)c1cnc(Nc2ccn(C3CC3)n2)cc1Nc1ccc2cnn(CC)c2c1OC` [Example 138, 6-((1-Cyclopropyl-1H-pyrazol-3-yl)amino)-4-((1-ethyl-7-methoxy-1H-indazol-6-yl)amino)-N-(methyl-d3)nicotinamide], the GI50 falls from 326 nM to 88.8 nM (3.7-fold).

Compared with `[2H]C([2H])([2H])NC(=O)c1cnc(NC(=O)C2CC2)cc1Nc1cc(F)c2cnn(C([2H])([2H])C([2H])([2H])[2H])c2c1OC` [Example 142, 6-(Cyclopropanecarboxamido)-4-((1-(ethyl-d5)-4-fluoro-7-methoxy-1H-indazol-6-yl)amino)-N-(methyl-d3)nicotinamide], `[2H]C([2H])([2H])NC(=O)c1cnc(NC(=O)C2CC2)cc1Nc1ccc2nnn(CC)c2c1OC` [Example 164, 6-(Cyclopropanecarbonylamino)-4-[(3-ethyl-4-methoxy-benzotriazol-5-yl)amino]-N-(trideuteriomethyl)pyridine-3-carboxamide] is 2.1-fold higher in GI50: 169 nM for the first, 349 nM for the second.

Going from `[2H]C([2H])([2H])NC(=O)c1cnc(NC(=O)C2CC2)cc1Nc1ccc2cnn(C3CC3)c2c1OC([2H])([2H])[2H]` [Example 145, 6-(Cyclopropanecarboxamido)-4-((1-cyclopropyl-7-(methoxy-d3)-1H-indazol-6-yl)amino)-N-(methyl-d3)nicotinamide] to `CNC(=O)c1cnc(NC(=O)C2CC2)cc1Nc1ccc2nn3c(c2c1OC)CCC3` [Example 156, 6-(Cyclopropanecarboxamido)-4-((9-methoxy-2,3-dihydro-1H-pyrrolo[1,2-b]indazol-8-yl)amino)-N-methylnicotinamide], the GI50 rises from 83.6 nM to 2900 nM (35-fold).

Compared with `[2H]C([2H])([2H])NC(=O)c1cnc(Nc2ccn(C3CC3)n2)nc1Nc1cccc(-c2ncn(C)n2)c1OC` [Example 146, 2-((1-Cyclopropyl-1H-pyrazol-3-yl)amino)-4-((2-methoxy-3-(1-methyl-1H-1,2,4-triazol-3-yl)phenyl)amino)-N-(methyl-d3)pyrimidine-5-carboxamide], `[2H]C([2H])([2H])NC(=O)c1cnc(Nc2cc(F)ccn2)cc1Nc1cn(C)c2c(Cl)cn(CC)c(=O)c12` [Example 162, 4-((7-Chloro-5-ethyl-1-methyl-4-oxo-4,5-dihydro-1H-pyrrolo[3,2-c]pyridin-3-yl)amino)-6-((4-fluoropyridin-2-yl)amino)-N-(methyl-d3)nicotinamide] is 32-fold lower in GI50: 832 nM for the first, 25.9 nM for the second.

First: CNC(=O)c1cnc(NC(=O)C2CC2)cc1Nc1cc(Br)c2nn3c(c2c1OC)CCC3 [Example 155, 4-((6-Bromo-9-methoxy-2,3-dihydro-1H-pyrrolo[1,2-b]indazol-8-yl)amino)-6-(cyclopropanecarboxamido)-N-methylnicotinamide]
Second: [2H]C([2H])([2H])NC(=O)c1cnc(Nc2ccc(F)cn2)cc1Nc1cn(C)c2c(Cl)cn(C([2H])([2H])[2H])c(=O)c12 [Example 170, 4-((7-Chloro-1-methyl-5-(methyl-d3)-4-oxo-4,5-dihydro-1H-pyrrolo[3,2-c]pyridin-3-yl)amino)-6-((5-fluoropyridin-2-yl)amino)-N-(methyl-d3)nicotinamide]
The GI50 of the first is 33-fold higher: 902 nM for the first, 27.6 nM for the second.
